Where “and” joins values, the source holds several entries; their conditions need not be identical. Equal values may be shown once.

Data set [1] can be described thus: Photostability in solution under continuous illumination at 630 nm. In kind it is physicochemical. The following applies: 3 h continuous illumination at 630 nm; 100 μM, HEPES pH 7.5, room temperature. From the text:
The photostabilities of L1 and L1Nd^3+ were studied under continuous illumination at 630 nm (FIG. 2).

Data set [2] in a line: Photophysical properties (absorption, emission, luminescence lifetime, quantum yields) in solution. In kind it is physicochemical. From the text: L1 ligand and L1Nd^3+ complex (Example 2) both have broad absorption bands which extend over a wavelength range having values as high as 750 nm with maxima centered at ˜615 and ˜670 nm and molar absorption coefficients up to 5·10^3 M^−1 cm^−1. Upon excitation of the low energy absorption bands located on L1 and on the L1Nd^3+ complex, it is possible to observe broadband emission signals from the chromophore ligand centered at ˜690 nm with a shoulder at ˜740 nm. The complex L1Nd^3+, when excited at a wavelength of 650 nm, produces a narrow emission band with a maximum at 1064 nm which is characteristic of the electronic structure of Nd^3+ resulting from the transition ^4F3/2→^4I11/2. […] As a result, ligand L1 and complex L1Nd^3+ both have excitation and emission wavelengths included in the domain of the biological diagnostic window (FIG. 1).
The quantitative luminescence parameters (luminescence lifetime (i) and luminescence quantum yields centered on L1-(QL) and on Nd^3+-(QNd)) determined on the L1Nd^3+ complex are summarized in Table 3.1.
Relatively short life time values T (in the nanosecond range) and low QNd quantum yields have been measured for the near-infrared emission of Nd^3+ in comparison with the highest corresponding values that have been published to date. […]
The quantum yield of the emission from the ligand is lower by a ratio of 30% for the Nd^3+ complex relative to the L1 ligand. […] It is important to point out that narrow Nd^3+ emission band positions are unaffected by microenvironmental changes, which is a major advantage over the “wavelength” indocyanine green commercial fluorophore. of similar excitation (Fernandez-Fernandez, R. Manchanda, T. Lei, D. A. Carvajal, Y. Tang, S. Z. Razza Kazmi, A. J. McGoron, Comparative study of the optical and heat generation properties of IR820 and indocyanine green, Molecular imaging, 11 (2012) 99 and S. Mordon, J. M. Devoisselle, S. Soulie-Begu, T. Desmetter, Indocyanine green: Physicochemical factors affecting its fluorescence in vivo, Microvascular Research, 55 (1998) 146-152).

Regarding `NCCNc1ccc(NCCNC(=O)CN(CCN(CCN(CCN(CC(=O)O)CC(=O)O)CC(=O)O)CC(=O)O)CC(=O)O)c2c1C(=O)c1c(O)ccc(O)c1C2=O` [Compound L1, 3-(2-((2-((4-((2-aminoethyl)amino)-5,8-di hydroxy-9,10-dioxo-9,10-dihydroanthracen-1-yl)aminoacid)ethyl)amino)-2-oxoethyl)-6,9,12-tris(carboxymethyl)-3,6,9,12-tétraazatétradécane-1,14-dioic], the “loss of initial emission intensity” value in data set [1] is listed as about 70%. For the same compound, in data set [2] (broad absorption bands extending to 750 nm, HEPES buffer), the absorption maxima is ~615 nm and ~670 nm. Moreover, the “QL(%) (quantum yield centered on L1)” value in data set [2] (excitation at 620 nm, emission collected 640-850 nm, 100 μM, pH = 7.5, room temperature) is 0,257(5) %. Further, the “broadband emission from the chromophore ligand, centre” value in data set [2] (excitation of low energy absorption bands, shoulder at ~740 nm) is about 690 nm.

(Values after patent US10669288B2, “Lanthanide complexes based on triethylenetetramine-N,N,N′,N″,N′″,N′″-hexaacetic acid derivatives” (UNIVERSITE D'ORLEANS, priority 2017, dated 2020).)
